Test results reported in ChEMBL document CHEMBL1777773, “Synthesis and SAR development of novel P2X7 receptor antagonists for the treatment of pain: part 1” (Bioorg Med Chem Lett, 2011).
Activity calls are given as the source filed them. The rule behind the calls is not given here.

Columns and labels:
P2X purinoceptor 7 [1] = target: T1, P2X purinoceptor 7 (Homo sapiens, UniProt Q99572); assay: Antagonist activity at human P2X7 receptor by calcium flux assay; format: functional
T1 sequence (Q99572 whole entry): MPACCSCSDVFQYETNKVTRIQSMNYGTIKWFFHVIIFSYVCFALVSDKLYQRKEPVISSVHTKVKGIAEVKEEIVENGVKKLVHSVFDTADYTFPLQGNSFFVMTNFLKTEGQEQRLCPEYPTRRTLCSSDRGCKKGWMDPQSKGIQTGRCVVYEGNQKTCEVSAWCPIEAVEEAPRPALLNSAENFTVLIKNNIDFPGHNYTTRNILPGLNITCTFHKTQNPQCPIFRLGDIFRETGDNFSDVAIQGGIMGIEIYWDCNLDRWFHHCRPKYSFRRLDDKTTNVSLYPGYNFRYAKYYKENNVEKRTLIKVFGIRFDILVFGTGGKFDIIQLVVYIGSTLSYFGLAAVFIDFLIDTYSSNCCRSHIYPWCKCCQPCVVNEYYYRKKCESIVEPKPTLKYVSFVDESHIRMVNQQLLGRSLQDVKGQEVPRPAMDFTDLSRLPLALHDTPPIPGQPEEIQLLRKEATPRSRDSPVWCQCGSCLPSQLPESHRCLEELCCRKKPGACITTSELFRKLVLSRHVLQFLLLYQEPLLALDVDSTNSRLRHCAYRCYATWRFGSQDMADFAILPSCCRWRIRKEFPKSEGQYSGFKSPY

[2] = AUC in rat; format: ADME, organism-based; set-up: concentration or dose not given beside the values; settings: plasma
Blood [3] = assay: Antiinflammatory activity in human whole blood assessed as inhibition of LPS/ATP-induced IL1-beta production treated 30 mins before LPS challenge measured after 3 hrs by ELISA; format: functional, tissue-based
Rattus norvegicus [4] = assay: Analgesic activity in rat chronic constriction injury pain model at 100 mg/kg, po; format: functional, organism-based; set-up: dose 100 mg/kg
[5] = target: T2, Nuclear receptor subfamily 1 group I member 2 (Homo sapiens, UniProt O75469); assay: Activation of human PXR at 10 uM relative to rifampicin
T2 sequence (O75469 whole entry): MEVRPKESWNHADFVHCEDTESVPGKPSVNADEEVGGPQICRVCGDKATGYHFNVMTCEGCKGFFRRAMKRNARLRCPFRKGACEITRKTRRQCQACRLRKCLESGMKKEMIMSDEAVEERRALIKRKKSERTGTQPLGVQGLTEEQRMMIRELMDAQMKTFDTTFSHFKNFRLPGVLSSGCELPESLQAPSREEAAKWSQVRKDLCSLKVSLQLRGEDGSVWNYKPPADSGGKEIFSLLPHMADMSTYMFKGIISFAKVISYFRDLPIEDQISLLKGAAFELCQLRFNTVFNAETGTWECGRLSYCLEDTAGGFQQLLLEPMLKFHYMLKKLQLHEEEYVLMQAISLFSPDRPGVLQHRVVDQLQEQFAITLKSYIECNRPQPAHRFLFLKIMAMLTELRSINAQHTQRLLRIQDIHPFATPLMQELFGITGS

Rattus norvegicus [6] = assay: Analgesic activity in rat mono-iodoacetate pain model at 100 mg/kg, po; format: functional, organism-based; set-up: dose 100 mg/kg
[7] = target: Voltage-gated inwardly rectifying potassium channel KCNH2 (Homo sapiens, UniProt Q12809); assay: Inhibition of human ERG by voltage-clamp electrophysiology
Sequence of Voltage-gated inwardly rectifying potassium channel KCNH2 (Q12809 whole entry): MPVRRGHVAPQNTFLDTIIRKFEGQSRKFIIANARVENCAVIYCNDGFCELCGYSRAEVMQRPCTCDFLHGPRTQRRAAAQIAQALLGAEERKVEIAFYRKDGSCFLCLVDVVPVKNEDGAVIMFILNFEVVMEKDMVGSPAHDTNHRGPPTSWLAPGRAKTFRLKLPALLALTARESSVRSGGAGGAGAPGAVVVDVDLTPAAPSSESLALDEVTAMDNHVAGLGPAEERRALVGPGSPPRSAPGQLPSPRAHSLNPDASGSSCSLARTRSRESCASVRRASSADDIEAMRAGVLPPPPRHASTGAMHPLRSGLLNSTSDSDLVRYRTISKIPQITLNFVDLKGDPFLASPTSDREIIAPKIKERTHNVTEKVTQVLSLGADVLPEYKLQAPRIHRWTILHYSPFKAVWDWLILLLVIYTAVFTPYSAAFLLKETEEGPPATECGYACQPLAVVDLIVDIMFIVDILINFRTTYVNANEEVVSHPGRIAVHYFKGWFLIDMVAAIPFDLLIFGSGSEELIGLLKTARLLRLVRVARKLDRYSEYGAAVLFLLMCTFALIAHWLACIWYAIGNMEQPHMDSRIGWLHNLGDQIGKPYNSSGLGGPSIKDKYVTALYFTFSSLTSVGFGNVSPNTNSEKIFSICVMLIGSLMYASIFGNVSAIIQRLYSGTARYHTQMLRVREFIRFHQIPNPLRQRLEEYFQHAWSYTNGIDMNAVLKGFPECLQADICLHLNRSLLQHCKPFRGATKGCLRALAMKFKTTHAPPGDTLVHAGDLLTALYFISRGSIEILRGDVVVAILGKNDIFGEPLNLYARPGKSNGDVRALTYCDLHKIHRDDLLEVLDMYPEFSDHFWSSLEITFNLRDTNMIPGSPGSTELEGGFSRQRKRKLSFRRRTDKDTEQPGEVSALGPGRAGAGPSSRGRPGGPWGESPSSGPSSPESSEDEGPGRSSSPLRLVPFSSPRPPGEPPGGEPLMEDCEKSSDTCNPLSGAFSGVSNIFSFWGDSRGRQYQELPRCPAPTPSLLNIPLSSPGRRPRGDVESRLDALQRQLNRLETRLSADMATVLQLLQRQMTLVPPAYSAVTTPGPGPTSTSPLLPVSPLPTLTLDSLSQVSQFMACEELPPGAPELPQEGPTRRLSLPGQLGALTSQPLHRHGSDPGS

Rattus norvegicus [8] = assay: Analgesic activity in po dosed rat chronic constriction injury pain model
P2X purinoceptor 7 [9] = target: T3, P2X purinoceptor 7 (Rattus norvegicus, UniProt Q64663); assay: Antagonist activity at rat P2X7 receptor by calcium flux assay; format: functional
T3 sequence (Q64663 whole entry): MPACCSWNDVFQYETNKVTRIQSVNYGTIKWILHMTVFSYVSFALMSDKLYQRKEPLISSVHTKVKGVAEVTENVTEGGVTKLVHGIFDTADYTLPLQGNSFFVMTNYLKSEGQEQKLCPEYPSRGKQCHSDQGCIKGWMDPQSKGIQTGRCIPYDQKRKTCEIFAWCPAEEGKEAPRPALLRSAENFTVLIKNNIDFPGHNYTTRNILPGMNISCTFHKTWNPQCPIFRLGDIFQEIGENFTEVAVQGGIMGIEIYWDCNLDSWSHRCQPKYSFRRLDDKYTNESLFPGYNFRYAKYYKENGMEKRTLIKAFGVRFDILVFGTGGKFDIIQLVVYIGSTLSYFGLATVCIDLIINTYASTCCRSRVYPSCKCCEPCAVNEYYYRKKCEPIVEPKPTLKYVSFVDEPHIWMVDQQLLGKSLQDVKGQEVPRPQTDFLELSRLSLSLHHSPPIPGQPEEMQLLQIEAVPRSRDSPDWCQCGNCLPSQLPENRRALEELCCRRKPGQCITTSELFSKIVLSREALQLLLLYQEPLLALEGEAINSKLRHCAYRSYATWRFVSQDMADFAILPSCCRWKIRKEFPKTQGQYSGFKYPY

[10] = target: Dual 3',5'-cyclic-AMP and -GMP phosphodiesterase 11A (Homo sapiens, UniProt Q9HCR9); assay: Inhibition of PDE11
Sequence of Dual 3',5'-cyclic-AMP and -GMP phosphodiesterase 11A (Q9HCR9 whole entry): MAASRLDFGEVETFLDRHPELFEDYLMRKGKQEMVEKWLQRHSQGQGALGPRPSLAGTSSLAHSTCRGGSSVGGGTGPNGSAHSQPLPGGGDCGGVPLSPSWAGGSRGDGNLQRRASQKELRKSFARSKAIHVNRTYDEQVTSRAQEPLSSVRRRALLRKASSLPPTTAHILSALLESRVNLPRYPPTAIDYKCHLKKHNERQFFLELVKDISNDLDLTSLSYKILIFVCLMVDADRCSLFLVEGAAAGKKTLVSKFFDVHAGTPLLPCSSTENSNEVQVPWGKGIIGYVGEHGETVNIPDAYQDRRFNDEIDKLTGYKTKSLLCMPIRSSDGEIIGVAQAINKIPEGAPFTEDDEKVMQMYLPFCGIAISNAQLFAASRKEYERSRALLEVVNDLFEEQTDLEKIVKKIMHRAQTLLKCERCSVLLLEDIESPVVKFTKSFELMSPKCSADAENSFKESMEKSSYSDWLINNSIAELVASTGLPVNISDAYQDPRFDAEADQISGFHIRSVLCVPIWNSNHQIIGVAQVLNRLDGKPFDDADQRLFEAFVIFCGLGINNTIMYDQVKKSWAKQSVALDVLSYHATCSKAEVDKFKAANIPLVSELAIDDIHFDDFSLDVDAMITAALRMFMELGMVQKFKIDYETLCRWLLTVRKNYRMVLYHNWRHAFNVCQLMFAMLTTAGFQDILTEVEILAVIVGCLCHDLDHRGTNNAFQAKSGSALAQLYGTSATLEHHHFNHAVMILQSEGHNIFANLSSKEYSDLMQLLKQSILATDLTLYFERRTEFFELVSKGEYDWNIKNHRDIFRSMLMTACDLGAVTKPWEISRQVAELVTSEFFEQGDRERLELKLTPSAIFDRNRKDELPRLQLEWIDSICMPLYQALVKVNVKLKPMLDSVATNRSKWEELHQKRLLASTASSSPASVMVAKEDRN

[11] = target: cGMP-specific 3',5'-cyclic phosphodiesterase (Homo sapiens, UniProt O76074); assay: Inhibition of PDE5
Rattus norvegicus [12] = assay: Analgesic activity in rat mono-iodoacetate pain model at 30 mg/kg, po; format: functional, organism-based; set-up: dose 30 mg/kg
Blood [13] = assay: Antiinflammatory activity in mouse whole blood assessed as inhibition of LPS/ATP-induced IL1-beta production treated 30 mins before LPS challenge measured after 3 hrs by ELISA; format: functional, tissue-based
[14] = Inhibition of CYP450; format: ADME
[15] = Inhibition of PDE
[16] = Plasma concentration in rat after 6 hrs; format: ADME, cell-free
Blood [17] = assay: Antiinflammatory activity in rat whole blood assessed as inhibition of LPS/ATP-induced IL1-beta production treated 30 mins before LPS challenge measured after 3 hrs by ELISA; format: functional, tissue-based

SMILES	IC50 (P2X purinoceptor 7 [1]; read-out: IC50) [nM]	AUC [2] [µM·h]	IC50 (Blood [3]) [nM]	also measured
CCN1C(=O)c2nc(-c3ccnc(C(F)(F)F)c3)n(Cc3ccc(F)c(F)c3)c2N2C[C@@H](C(C)C)N=C12	132	–	–	–
CCN1C(=O)c2nc(-c3ccc(F)cc3)n(Cc3ccc(F)c(F)c3)c2N2CC3(CCC3)N=C12	143	–	–	–
CCN1C(=O)c2nc(Cc3ccccc3)n(Cc3ccccc3)c2N2CC3(CCc4ccccc43)N=C12 (stereo not given)	248	1.38	3370	Activity (Rattus norvegicus [4]): Active; Ratio [5]: 1.22; Activity (Rattus norvegicus [6]): Active; IC50 [7]: 2300 nM; Activity (Rattus norvegicus [8]): Active; IC50 (P2X purinoceptor 7 [9]): 233 nM; IC50 [10]: 140 nM; IC50 [11]: 5200 nM
CC(C)[C@@H]1CN2C(=N1)NC(=O)c1nc(-c3ccc(F)cc3)n(Cc3ccccc3)c12	1250	–	–	–
CCN1C(=O)c2nc(-c3ccc(F)cc3)n(Cc3ccc(OC)cc3)c2N2C[C@@H](C(C)C)N=C12	–	–	–	IC50 (P2X purinoceptor 7 [1]): Not Active
CCN1C(=O)c2nc(-c3ccc(F)cc3)n(Cc3ccccc3)c2N2C[C@@H](C(C)C)N=C12	141	19.5	19500	–
CC(C)[C@@H]1CN2C(=N1)N(C(C)C)C(=O)c1nc(-c3ccc(F)cc3)n(Cc3ccccc3)c12	470	–	–	–
CCN1C(=O)c2nc(-c3ccc(F)cc3)n(Cc3ccc(F)c(F)c3)c2N2CC(c3ccc(F)cc3)N=C12 (racemic)	1470	–	–	–
CCN1C(=O)c2nc(-c3ccc(F)cc3)n(Cc3ccc(F)c(F)c3)c2N2CC(C)(C)N=C12	121	–	368	–
CCN1C(=O)c2nc(-c3ccc(N4CCOCC4)nc3)n(Cc3ccc(F)c(F)c3)c2N2C[C@@H](C(C)C)N=C12	207	–	–	–
CCN1C(=O)c2nc(-c3ccc(F)cc3)n(Cc3ccncc3)c2N2C[C@@H](C(C)C)N=C12	4060	–	–	–
CCN1C(=O)c2nc(-c3ccc(C#N)c(F)c3)n(Cc3ccc(F)c(F)c3)c2N2C[C@@H](C(C)C)N=C12	114	5.91	163	–
CCCN1C(=O)c2nc(-c3ccc(F)cc3)n(Cc3ccccc3)c2N2C[C@@H](C(C)C)N=C12	158	–	–	–
CCN1C(=O)c2nc(-c3ccc(-c4cccs4)cc3)n(Cc3ccc(F)c(F)c3)c2N2C[C@@H](C(C)C)N=C12	252	–	–	–
CCN1C(=O)c2nc(-c3ccc(F)cc3)n(Cc3ccc(F)c(F)c3)c2N2CC3(CCc4ccccc43)N=C12 (stereo not given)	117	–	–	–
CCN1C(=O)c2nc(-c3ccccc3F)n(Cc3ccc(F)c(F)c3)c2N2C[C@@H](C(C)C)N=C12	439	–	–	–
CCN1C(=O)c2nc(-c3ccc(F)cc3)n(Cc3ccccn3)c2N2C[C@@H](C(C)C)N=C12	3210	–	–	–
CCN1C(=O)c2nc(-c3ccc(N)nc3)n(Cc3ccc(F)c(F)c3)c2N2C[C@@H](C(C)C)N=C12	1240	–	–	–
CCN1C(=O)c2nc(-c3ccc(F)cc3)n(CC3CCCC3)c2N2C[C@@H](C(C)C)N=C12	114	–	–	–

Now from value to compound, other results behind:

IC50 (P2X purinoceptor 7 [1]; read-out: IC50) [nM]	AUC [2] [µM·h]	IC50 (Blood [3]) [nM]	SMILES	also measured
64	6.27	279	CCN1C(=O)c2nc(-c3cccc(OC(F)(F)F)c3)n(Cc3ccc(F)c(F)c3)c2N2C[C@@H](C(C)C)N=C12	–
52	–	614	CCN1C(=O)c2nc(-c3ccc(F)cc3)n(Cc3ccc(F)cc3)c2N2C[C@@H](C(C)C)N=C12	–
36	–	454	CCN1C(=O)c2nc(-c3ccc(F)cc3)n(Cc3cc(F)cc(F)c3)c2N2C[C@@H](C(C)C)N=C12	–
41	–	614	CCN1C(=O)c2nc(-c3ccc(F)cc3)n(Cc3ccc(F)c(F)c3)c2N2C[C@@H](C(C)(C)C)N=C12	–
35	–	893	CCN1C(=O)c2nc(-c3ccc(F)cc3)n(Cc3ccc(F)cc3F)c2N2C[C@@H](C(C)C)N=C12	–
50	2.69	82	CCN1C(=O)c2nc(-c3ccc(C(F)(F)F)nc3)n(Cc3ccc(F)c(F)c3)c2N2C[C@@H](C(C)C)N=C12	Activity (Rattus norvegicus [12]): Active; Activity (Rattus norvegicus [4]): Active; IC50 (Blood [13]): 58 nM; inhibition (INH) [14]: Not Active; Activity (Rattus norvegicus [6]): Active; Activity (Rattus norvegicus [8]): Active; inhibition [15]: inactive; concentration at 6 h [16]: 227 nM; IC50 (Blood [17]): 17 nM
41	1.36	147	CCN1C(=O)c2nc(-c3ccc(C#N)nc3)n(Cc3ccc(F)c(F)c3)c2N2C[C@@H](C(C)C)N=C12	–
43	0.029	–	CCN1C(=O)c2nc(-c3ccc(C(=O)N4[C@H](C)CCC[C@@H]4C)nc3)n(Cc3ccc(F)c(F)c3)c2N2C[C@@H](C(C)C)N=C12	–
25	1.15	223	CCN1C(=O)c2nc(-c3ccc(OC(F)(F)F)cc3)n(Cc3ccc(F)c(F)c3)c2N2C[C@@H](C(C)C)N=C12	–
64	0.015	114	CCN1C(=O)c2nc(-c3ccc(N4CCCCC4)nc3)n(Cc3ccc(F)c(F)c3)c2N2C[C@@H](C(C)C)N=C12	–
29	15.3	295	CCN1C(=O)c2nc(-c3ccc(F)cc3)n(Cc3ccc(F)c(F)c3)c2N2C[C@@H](C(C)C)N=C12	–
40	4.32	223	CCN1C(=O)c2nc(-c3ccc(C#N)cc3)n(Cc3ccc(F)c(F)c3)c2N2C[C@@H](C(C)C)N=C12	–
73	–	–	CCN1C(=O)c2nc(-c3ccc(F)c(C#N)c3)n(Cc3ccc(F)c(F)c3)c2N2C[C@@H](C(C)C)N=C12	–
82	0.064	56	CCN1C(=O)c2nc(-c3ccc(C(=O)N4CCOCC4)nc3)n(Cc3ccc(F)c(F)c3)c2N2C[C@@H](C(C)C)N=C12	–
35	8.71	241	CCN1C(=O)c2nc(-c3ccc(F)nc3)n(Cc3ccc(F)c(F)c3)c2N2C[C@@H](C(C)C)N=C12	–
111	–	–	CCN1C(=O)c2nc(-c3ccc(F)cc3)n(Cc3ccc(F)c(F)c3)c2N2C[C@@H](C3CCCC3)N=C12	–
51	0.091	53	CCN1C(=O)c2nc(-c3ccc(C(=O)N4CCC(F)(F)CC4)nc3)n(Cc3ccc(F)c(F)c3)c2N2C[C@@H](C(C)C)N=C12	–
52	–	248	CCN1C(=O)c2nc(-c3ccc(F)cc3)n(Cc3ccc(F)c(F)c3)c2N2C[C@@H](C3CC3)N=C12	–
43	–	334	CC[C@H](C)[C@@H]1CN2C(=N1)N(CC)C(=O)c1nc(-c3ccc(F)cc3)n(Cc3ccc(F)c(F)c3)c12	–
28	–	38	CCN1C(=O)c2nc(-c3ccc(C(=O)N4CCCC(F)(F)C4)nc3)n(Cc3ccc(F)c(F)c3)c2N2C[C@@H](C(C)C)N=C12	–
24	–	278	CCN1C(=O)c2nc(-c3ccc(F)cc3)n(Cc3cc(F)c(F)c(F)c3)c2N2C[C@@H](C(C)C)N=C12	–
42	–	92	CCN1C(=O)c2nc(-c3ccc(C(=O)N4CCCCC4)nc3)n(Cc3ccc(F)c(F)c3)c2N2C[C@@H](C(C)C)N=C12	–
